# Results as given in ChEMBL document CHEMBL1201861, “Genomics of Drug Sensitity in Cancer screening data, Wellcome Trust Sanger Institute”.
# Columns and labels:
# Assay in all cases: cells
# COLO-800 = format: functional, cell-based, Homo sapiens; settings: Homo sapiens, COLO-800;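 note: growth inhibition of COLO-800 cells, read out with a cell viability assay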
# Description: SANGER: Inhibition of human COLO-800 cell growth in a cell viability assay.
# COLO-829 = format: functional, cell-based, Homo sapiens; settings: Homo sapiens, COLO-829
# Description: SANGER: Inhibition of human COLO-829 cell growth in a cell viability assay.
# Ca9-22 = format: functional, cell-based, Homo sapiens; settings: Homo sapiens, Ca9-22;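 note: growth inhibition of Ca9-22 cells, read out with a cell viability assay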
# Description: SANGER: Inhibition of human Ca9-22 cell growth in a cell viability assay.
# Capan-2 = format: functional, cell-based, Homo sapiens; settings: Homo sapiens, Capan-2;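 note: Capan-2 cell growth inhibition, read out with a viability assay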
# Description: SANGER: Inhibition of human Capan-2 cell growth in a cell viability assay.
# DJM-1 = format: functional, cell-based, Homo sapiens; settings: Homo sapiens, DJM-1;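 note: growth inhibition of human DJM-1 cells, read out by a cell viability assay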
# Description: SANGER: Inhibition of human DJM-1 cell growth in a cell viability assay.
# DU-4475 = format: functional, cell-based; settings: Homo sapiens
# Description: SANGER: Inhibition of human DU-4475 cell growth in a cell viability assay.
# EFM-19 = format: functional, cell-based, Homo sapiens; settings: Homo sapiens, EFM-19;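 note: growth inhibition of human EFM-19 cells, measured in a cell viability assay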
# Description: SANGER: Inhibition of human EFM-19 cell growth in a cell viability assay.
# ES6 = format: functional, cell-based, Homo sapiens; settings: Homo sapiens, ES6;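 note: growth inhibition of human ES6 cells, read out with a cell viability assay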
# Description: SANGER: Inhibition of human ES6 cell growth in a cell viability assay.
# GAMG = format: functional, cell-based, Homo sapiens; settings: Homo sapiens, GAMG;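 note: cell growth inhibition measured by a viability assay in the GAMG human cell line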
# Description: SANGER: Inhibition of human GAMG cell growth in a cell viability assay.
# HCC1419 = format: functional, cell-based, Homo sapiens; settings: Homo sapiens, HCC1419;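 note: growth inhibition of human HCC1419 cells, read out as cell viability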
# Description: SANGER: Inhibition of human HCC1419 cell growth in a cell viability assay.
# HCE-T = format: functional, cell-based, Homo sapiens; settings: Homo sapiens, HCE-T;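 note: cell viability assay read-out, reporting inhibition of HCE-T cell growth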
# Description: SANGER: Inhibition of human HCE-T cell growth in a cell viability assay.
# KURAMOCHI = format: functional, cell-based; settings: Homo sapiens;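 note: growth inhibition of KURAMOCHI cells, read out with a cell viability assay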
# Description: SANGER: Inhibition of human KURAMOCHI cell growth in a cell viability assay.
# KYSE-520 cell line = format: functional, cell-based, Homo sapiens; settings: Homo sapiens, KYSE-520;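 note: growth inhibition of human KYSE-520 cells, read out with a viability assay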
# Description: SANGER: Inhibition of human KYSE-520 cell growth in a cell viability assay.
# LB2241-RCC = format: functional, cell-based, Homo sapiens; settings: Homo sapiens, LB2241-RCC;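 note: cell viability assay measuring how strongly the cultured human renal carcinoma line is prevented from growing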
# Description: SANGER: Inhibition of human LB2241-RCC cell growth in a cell viability assay.
# LN-405 = format: functional, cell-based, Homo sapiens; settings: Homo sapiens, LN-405
# Description: SANGER: Inhibition of human LN-405 cell growth in a cell viability assay.
# LNCaP-Clone-FGC = format: functional, cell-based, Homo sapiens; settings: Homo sapiens, LNCaP-Clone-FGC
# Description: SANGER: Inhibition of human LNCaP-Clone-FGC cell growth in a cell viability assay.
# LS-123 = format: functional, cell-based, Homo sapiens; settings: Homo sapiens, LS-123
# Description: SANGER: Inhibition of human LS-123 cell growth in a cell viability assay.
# M059J = format: functional, cell-based, Homo sapiens; settings: Homo sapiens, M059J;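 note: growth inhibition of M059J cells, read out with a cell viability assay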
# Description: SANGER: Inhibition of human M059J cell growth in a cell viability assay.
# MDA-MB-157 = format: functional, cell-based, Homo sapiens; settings: Homo sapiens, MDA-MB-157
# Description: SANGER: Inhibition of human MDA-MB-157 cell growth in a cell viability assay.
# MIA PaCa-2 = format: functional, cell-based, Homo sapiens; settings: Homo sapiens, MIA PaCa-2;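 note: growth inhibition of MIA PaCa-2 cells, read out with a cell viability assay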
# Description: SANGER: Inhibition of human MIA-PaCa-2 cell growth in a cell viability assay.
# MeWo = format: functional, cell-based, Homo sapiens; settings: Homo sapiens, MeWo;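 note: growth inhibition of MeWo cells, determined by a cell viability readout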
# Description: SANGER: Inhibition of human Mewo cell growth in a cell viability assay.
# NCI-H1437 = format: functional, cell-based, Homo sapiens; settings: Homo sapiens, NCI-H1437;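 note: growth inhibition of human NCI-H1437 cells, read out by a cell viability assay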
# Description: SANGER: Inhibition of human NCI-H1437 cell growth in a cell viability assay.
# NCI-H1793 = format: functional, cell-based, Homo sapiens; settings: Homo sapiens, NCI-H1793;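 note: cell growth inhibition, read out by a cell viability assay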
# Description: SANGER: Inhibition of human NCI-H1793 cell growth in a cell viability assay.
# NCI-H226 = format: functional, cell-based, Homo sapiens; settings: Homo sapiens, NCI-H226;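 note: cell viability read-out used to gauge growth inhibition of the cells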
# Description: SANGER: Inhibition of human NCI-H226 cell growth in a cell viability assay.
# NCI-H2452 = format: functional, cell-based, Homo sapiens; settings: Homo sapiens, NCI-H2452;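 note: growth inhibition of NCI-H2452 cells, read out with a cell viability assay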
# Description: SANGER: Inhibition of human NCI-H2452 cell growth in a cell viability assay.
# OCUB-M = format: functional, cell-based, Homo sapiens; settings: Homo sapiens, OCUB-M;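 note: growth inhibition of the cancer cell line, read out through a cell viability assay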
# Description: SANGER: Inhibition of human OCUB-M cell growth in a cell viability assay.
# OE33 = format: functional, cell-based, Homo sapiens; settings: Homo sapiens, OE33;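 note: growth inhibition of human OE33 cells, measured by a cell viability assay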
# Description: SANGER: Inhibition of human OE33 cell growth in a cell viability assay.
# OS-RC-2 = format: functional, cell-based, Homo sapiens; settings: Homo sapiens, OS-RC-2;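 note: growth inhibition of human OS-RC-2 cells, measured by a cell viability assay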
# Description: SANGER: Inhibition of human OS-RC-2 cell growth in a cell viability assay.
# OVCAR-3 = format: functional, cell-based, Homo sapiens; settings: Homo sapiens, OVCAR-3;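 note: growth inhibition of human OVCAR-3 cells, determined by a cell viability assay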
# Description: SANGER: Inhibition of human OVCAR-3 cell growth in a cell viability assay.
# PANC-08-13 = format: functional, cell-based, Homo sapiens; settings: Homo sapiens, PANC-08-13;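 note: cell growth inhibition, measured with a cell viability assay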
# Description: SANGER: Inhibition of human PANC-08-13 cell growth in a cell viability assay.
# Panc1005 = format: functional, cell-based, Homo sapiens; settings: Homo sapiens, Panc1005;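 note: growth inhibition of human PANC-10-05 cells, measured by a cell viability assay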
# Description: SANGER: Inhibition of human PANC-10-05 cell growth in a cell viability assay.
# PC-3 = format: functional, cell-based, Homo sapiens; settings: Homo sapiens, PC-3;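 note: cell viability assay measuring growth inhibition of PC-3 cells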
# Description: SANGER: Inhibition of human PC-3 cell growth in a cell viability assay.
# RD = format: functional, cell-based, Homo sapiens; settings: Homo sapiens, RD
# Description: SANGER: Inhibition of human RD cell growth in a cell viability assay.
# RO82-W-1 = format: functional, cell-based, Homo sapiens; settings: Homo sapiens, RO82-W-1;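 note: growth inhibition of human RO82-W-1 cells, measured with a cell viability assay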
# Description: SANGER: Inhibition of human RO82-W-1 cell growth in a cell viability assay.
# SF-295 = format: functional, cell-based, Homo sapiens; settings: Homo sapiens, SF-295; read-out: IC50;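 note: growth inhibition of SF-295 cells, read out with a cell viability assay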
# Description: SANGER: Inhibition of human SF295 cell growth in a cell viability assay.
# SJSA-1 = format: functional, cell-based, Homo sapiens; settings: Homo sapiens, SJSA-1;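 note: growth inhibition of human SJSA-1 cells, read out through a cell viability measurement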
# Description: SANGER: Inhibition of human SJSA-1 cell growth in a cell viability assay.
# SK-N-DZ = format: functional, cell-based, Homo sapiens; settings: Homo sapiens, SK-N-DZ;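 note: growth inhibition of the cancer cell line, read out through a viability assay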
# Description: SANGER: Inhibition of human SK-N-DZ cell growth in a cell viability assay.
# SNB-75 = format: functional, cell-based, Homo sapiens; settings: Homo sapiens, SNB-75;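 note: cell viability assay measuring growth inhibition of human SNB-75 cells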
# Description: SANGER: Inhibition of human SNB75 cell growth in a cell viability assay.
# SW837 = format: functional, cell-based, Homo sapiens; settings: Homo sapiens, SW837;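 note: growth inhibition of SW837 cells, determined with a cell viability assay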
# Description: SANGER: Inhibition of human SW837 cell growth in a cell viability assay.
# TE-1 = format: functional, cell-based, Homo sapiens; settings: Homo sapiens, TE-1;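 note: growth inhibition of the human TE-1 cell line, read out with a cell viability assay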
# Description: SANGER: Inhibition of human TE-1 cell growth in a cell viability assay.
# BB65-RCC = format: functional, cell-based, Homo sapiens; settings: Homo sapiens, BB65-RCC;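 note: growth inhibition of the cell line, measured with a cell viability assay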
# Description: SANGER: Inhibition of human BB65-RCC cell growth in a cell viability assay.
# C2BBe1 = format: functional, cell-based, Homo sapiens; settings: Homo sapiens, C2BBe1;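 note: growth inhibition of C2BBe1 cells, read out through a viability assay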
# Description: SANGER: Inhibition of human C2BBe1 cell growth in a cell viability assay.
# C32 = format: functional, cell-based, Homo sapiens; settings: Homo sapiens, C32;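 note: cell viability assay, with IC50 reflecting inhibition of C32 cell growth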
# Description: SANGER: Inhibition of human C32 cell growth in a cell viability assay.
# CAL-39 = format: functional, cell-based, Homo sapiens; settings: Homo sapiens, CAL-39;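 note: cell viability assay measuring growth inhibition of CAL-39 cells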
# Description: SANGER: Inhibition of human CAL-39 cell growth in a cell viability assay.
# TE-8 = format: functional, cell-based, Homo sapiens; settings: Homo sapiens, TE-8;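 note: growth inhibition of TE-8 cells, measured with a cell viability readout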
# Description: SANGER: Inhibition of human TE-8 cell growth in a cell viability assay.
# U2OS = format: functional, cell-based, Homo sapiens, U-2-OS; settings: Homo sapiens, U2OS;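 note: growth inhibition of human U-2-OS cells, determined with a cell viability assay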
# Description: SANGER: Inhibition of human U-2-OS cell growth in a cell viability assay.
# UACC-62 = format: functional, cell-based, Homo sapiens; settings: Homo sapiens, UACC-62;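 note: growth inhibition of human UACC-62 cells, read out by a cell viability assay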
# Description: SANGER: Inhibition of human UACC-62 cell growth in a cell viability assay.
# COLO-678 = format: functional, cell-based, Homo sapiens; settings: Homo sapiens, COLO-678
# Description: SANGER: Inhibition of human COLO-678 cell growth in a cell viability assay.
smiles,measurement,setting,value
COc1ccc(-c2ccc3c(N4CCOC[C@@H]4C)nc(N4CCOC[C@@H]4C)nc3n2)cc1CO [AZD-8055],IC50,COLO-800,698 nM
same,IC50,COLO-829,> 2000 nM
same,IC50,Ca9-22,787 nM
same,IC50,Capan-2,> 2000 nM
same,IC50,DJM-1,1620 nM
same,IC50,DU-4475,80.5 nM
same,IC50,EFM-19,708 nM
same,IC50,ES6,1360 nM
same,IC50,GAMG,557 nM
same,IC50,HCC1419,869 nM
same,IC50,HCE-T,1180 nM
same,IC50,KURAMOCHI,> 2000 nM
same,IC50,KYSE-520 cell line,> 2000 nM
same,IC50,LB2241-RCC,302 nM
same,IC50,LN-405,1280 nM
same,IC50,LNCaP-Clone-FGC,353 nM
same,IC50,LS-123,1250 nM
same,IC50,M059J,> 2000 nM
same,IC50,MDA-MB-157,678 nM
same,IC50,MIA PaCa-2,929 nM
same,IC50,MeWo,1090 nM
same,IC50,NCI-H1437,606 nM
same,IC50,NCI-H1793,534 nM
same,IC50,NCI-H226,> 2000 nM
same,IC50,NCI-H2452,619 nM
same,IC50,OCUB-M,827 nM
same,IC50,OE33,799 nM
same,IC50,OS-RC-2,1080 nM
same,IC50,OVCAR-3,> 2000 nM
same,IC50,PANC-08-13,574 nM
same,IC50,Panc1005,> 2000 nM
same,IC50,PC-3,722 nM
same,IC50,RD,> 2000 nM
same,IC50,RO82-W-1,1520 nM
same,IC50,SF-295,685 nM
same,IC50,SJSA-1,446 nM
same,IC50,SK-N-DZ,> 2000 nM
same,IC50,SNB-75,1750 nM
same,IC50,SW837,> 2000 nM
same,IC50,TE-1,> 2000 nM
same,IC50,BB65-RCC,308 nM
same,IC50,C2BBe1,1170 nM
same,IC50,C32,725 nM
same,IC50,CAL-39,523 nM
same,IC50,TE-8,1460 nM
same,IC50,U2OS,760 nM
same,IC50,UACC-62,> 2000 nM
same,IC50,COLO-678,> 2000 nM
O=c1cc(-c2cccc3c2Sc2ccccc2S3)oc(N2CCOCC2)c1 [KU-55933],IC50,COLO-800,> 10000 nM
same,IC50,COLO-829,> 10000 nM
same,IC50,Ca9-22,> 10000 nM
same,IC50,Capan-2,> 10000 nM
same,IC50,DJM-1,> 10000 nM
same,IC50,DU-4475,> 10000 nM
same,IC50,EFM-19,> 10000 nM
same,IC50,ES6,> 10000 nM
same,IC50,GAMG,> 10000 nM
same,IC50,HCC1419,> 10000 nM
same,IC50,HCE-T,> 10000 nM
same,IC50,KURAMOCHI,> 10000 nM
same,IC50,KYSE-520 cell line,> 10000 nM
same,IC50,LB2241-RCC,> 10000 nM
same,IC50,LN-405,> 10000 nM
same,IC50,LNCaP-Clone-FGC,> 10000 nM
same,IC50,LS-123,> 10000 nM
same,IC50,M059J,> 10000 nM
same,IC50,MDA-MB-157,> 10000 nM
same,IC50,MIA PaCa-2,> 10000 nM
same,IC50,MeWo,> 10000 nM
same,IC50,NCI-H1437,9810 nM
same,IC50,NCI-H1793,> 10000 nM
same,IC50,NCI-H226,> 10000 nM
same,IC50,NCI-H2452,> 10000 nM
same,IC50,OCUB-M,> 10000 nM
same,IC50,OE33,> 10000 nM
same,IC50,OS-RC-2,> 10000 nM
same,IC50,OVCAR-3,> 10000 nM
same,IC50,PANC-08-13,> 10000 nM
same,IC50,Panc1005,> 10000 nM
same,IC50,PC-3,> 10000 nM
same,IC50,RD,> 10000 nM
same,IC50,RO82-W-1,> 10000 nM
same,IC50,SF-295,> 10000 nM
same,IC50,SJSA-1,> 10000 nM
same,IC50,SK-N-DZ,> 10000 nM
same,IC50,SNB-75,> 10000 nM
same,IC50,SW837,> 10000 nM
same,IC50,TE-1,> 10000 nM
same,IC50,BB65-RCC,> 10000 nM
same,IC50,C2BBe1,> 10000 nM
same,IC50,C32,> 10000 nM
same,IC50,CAL-39,> 10000 nM
same,IC50,TE-8,> 10000 nM
same,IC50,U2OS,> 10000 nM
same,IC50,UACC-62,> 10000 nM
same,IC50,COLO-678,> 10000 nM
COc1ccc(C2=N[C@@H](c3ccc(Cl)cc3)[C@@H](c3ccc(Cl)cc3)N2C(=O)N2CCNC(=O)C2)c(OC(C)C)c1 [NUTLIN-3],IC50,COLO-800,> 8000 nM
same,IC50,COLO-829,7240 nM
same,IC50,Ca9-22,> 8000 nM
same,IC50,Capan-2,> 8000 nM
same,IC50,DJM-1,> 8000 nM
same,IC50,DU-4475,2800 nM
same,IC50,EFM-19,> 8000 nM
same,IC50,ES6,> 8000 nM
same,IC50,GAMG,> 8000 nM
same,IC50,HCC1419,> 8000 nM
same,IC50,HCE-T,> 8000 nM
same,IC50,KURAMOCHI,> 8000 nM
same,IC50,KYSE-520 cell line,> 8000 nM
same,IC50,LB2241-RCC,3660 nM
same,IC50,LN-405,> 8000 nM
same,IC50,LNCaP-Clone-FGC,2640 nM
same,IC50,LS-123,> 8000 nM
same,IC50,M059J,> 8000 nM
same,IC50,MDA-MB-157,> 8000 nM
same,IC50,MIA PaCa-2,> 8000 nM
same,IC50,MeWo,> 8000 nM
same,IC50,NCI-H1437,> 8000 nM
same,IC50,NCI-H1793,> 8000 nM
same,IC50,NCI-H226,> 8000 nM
same,IC50,NCI-H2452,> 8000 nM
same,IC50,OCUB-M,> 8000 nM
same,IC50,OE33,> 8000 nM
same,IC50,OS-RC-2,5740 nM
same,IC50,OVCAR-3,> 8000 nM
same,IC50,PANC-08-13,> 8000 nM
same,IC50,Panc1005,> 8000 nM
same,IC50,PC-3,> 8000 nM
same,IC50,RD,> 8000 nM
same,IC50,RO82-W-1,> 8000 nM
same,IC50,SF-295,> 8000 nM
same,IC50,SJSA-1,2830 nM
same,IC50,SK-N-DZ,> 8000 nM
same,IC50,SNB-75,> 8000 nM
same,IC50,SW837,> 8000 nM
same,IC50,TE-1,> 8000 nM
same,IC50,BB65-RCC,> 8000 nM
same,IC50,C2BBe1,3170 nM
same,IC50,C32,5600 nM
same,IC50,CAL-39,> 8000 nM
same,IC50,TE-8,> 8000 nM
same,IC50,U2OS,2910 nM
same,IC50,UACC-62,> 8000 nM
same,IC50,COLO-678,> 8000 nM
C=CCNC1=C2C[C@@H](C)C[C@H](OC)[C@H](O)[C@@H](C)/C=C(\C)[C@H](OC(N)=O)[C@@H](OC)/C=C\C=C(/C)C(=O)NC(=CC1=O)C2=O [TANESPIMYCIN],IC50,COLO-800,258 nM
same,IC50,COLO-829,120 nM
same,IC50,Ca9-22,> 1000 nM
same,IC50,Capan-2,193 nM
same,IC50,DJM-1,> 1000 nM
same,IC50,DU-4475,22.6 nM
same,IC50,EFM-19,737 nM
same,IC50,ES6,> 1000 nM
same,IC50,GAMG,34.3 nM
same,IC50,HCC1419,146 nM
same,IC50,HCE-T,386 nM
same,IC50,KURAMOCHI,952 nM
same,IC50,KYSE-520 cell line,182 nM
same,IC50,LB2241-RCC,101 nM
same,IC50,LN-405,417 nM
same,IC50,LNCaP-Clone-FGC,800 nM
same,IC50,LS-123,> 1000 nM
same,IC50,M059J,90.3 nM
same,IC50,MDA-MB-157,181 nM
same,IC50,MIA PaCa-2,10.1 nM
same,IC50,MeWo,149 nM
same,IC50,NCI-H1437,122 nM
same,IC50,NCI-H1793,385 nM
same,IC50,NCI-H226,> 1000 nM
same,IC50,NCI-H2452,140 nM
same,IC50,OCUB-M,> 1000 nM
same,IC50,OE33,851 nM
same,IC50,OS-RC-2,245 nM
same,IC50,OVCAR-3,593 nM
same,IC50,PANC-08-13,532 nM
same,IC50,Panc1005,412 nM
same,IC50,PC-3,515 nM
same,IC50,RD,191 nM
same,IC50,RO82-W-1,397 nM
same,IC50,SF-295,64.5 nM
same,IC50,SJSA-1,318 nM
same,IC50,SK-N-DZ,> 1000 nM
same,IC50,SNB-75,122 nM
same,IC50,SW837,> 1000 nM
same,IC50,TE-1,92 nM
same,IC50,BB65-RCC,106 nM
same,IC50,C2BBe1,222 nM
same,IC50,C32,3.04 nM
same,IC50,CAL-39,77.7 nM
same,IC50,TE-8,113 nM
same,IC50,U2OS,172 nM
same,IC50,UACC-62,322 nM
same,IC50,COLO-678,240 nM
